Here are results for three compounds from US6962931B2, “Self-emulsifying formulations of cholesteryl ester transfer protein inhibitors” (Pfizer Inc., priority 2001, dated 2005).

Some results are limits rather than exact numbers.

A short description of series [1]: Extent of emulsification, droplet size by optical microscope. The class given is physicochemical. The procedure: The extent of emulsification was determined by mixing the preconcentrate and water in a ratio of 1:100 and 1:10 by gentle inversion (5×), visual inspection, and examination under an optical microscope, using a polarizing filter to check for the appearance of crystals. Droplet size determined by this approach is expressed as the upper limit for the average droplet size, since submicron droplets cannot be detected by this method.

Series [2] in a line: Microsolubility estimate by repeated addition of vehicle. The class given is physicochemical. The procedure:
For CETP inhibitors where quantities were limited, an estimate of solubility was obtained by addition of vehicle to a known quantity of the compound and mixing in an ultrasonicator bath for 90 minutes, followed by overnight equilibration at ambient temperature. Addition of vehicle was repeated until a solution was achieved.
For CETP inhibitors where quantities were limited or the samples were amorphous solids, an estimate of solubility was obtained by addition of vehicle to a known quantity of the compound and mixing in an ultrasonicator bath for 90 minutes, followed by overnight equilibration at ambient temperature. Addition of vehicle was repeated until a solution was achieved. From the total volume of vehicle added to solubilize the CETP inhibitor compound, the solubility value, or so-called microsolubility, was calculated by the equation: Weight of sample (mgA)/vehicle volume (mL)=Microsolubility (mgA/mL)

Series [3] is described as follows: Equilibrium solubility in excipients, vehicles and emulsion preconcentrates. Format: physicochemical. The procedure:
The solubility of CETP inhibitors in excipients and in formulations was determined by adding an excess of compound to the medium in question. The mixture was agitated by rotation over a period of days at ambient temperature until the concentration in solution had reached an equilibrium as judged by similar measurements for consecutive time points. Concentrations were measured by filtration of aliquots with a PTFE syringe filter and assay by HPLC as described in Example 11.
The solubility of crystalline CETP inhibitors in representative vehicles was determined by adding an excess of compound to the vehicle in question. The mixture was agitated by rotation over a period of days at ambient temperature until the concentration in solution had reached equilibrium as judged by similar measurements for consecutive time points. Concentrations were measured by filtration of aliquots with a PTFE syringe filter and assayed by HPLC.
The concentrations of CETP inhibitor in each vehicle were assayed at intervals by dilution of aliquots into acetonitrile and gradient HPLC analysis on a Water Symmetry C-8 column (3.9×150 mm, 5 micron) at 30° C. at a flow rate of 1 mL/min. […] The detection method was UV absorbance at 210 nm.

Series [4] can be described thus: Emulsion from oil solution plus equal volume of water: particle size and stability. The class given is physicochemical. The procedure: An emulsion was prepared by combining 1 volume of oil solution with an equal volume of de-ionized water. […] The emulsion is then stirred continuously to maintain homogeneity.
An emulsion was prepared by combining 1 volume of oil solution with an equal volume of de-ionized water. This mixture was stirred for 10 minutes and then vortex mixed for 2 minutes. […] It was stirred continuously to maintain homogeneity.
An emulsion was prepared by combining combining 1 volume of oil solution with an equal volume of de-ionized water. This mixture was stirred for 10 minutes and then vortex mixed for 2 minutes. […] It was stirred continuously to maintain homogeneity.

The nature of series [5]: Pharmacokinetics in dogs. Format: in vivo, Male Beagle dogs. Particulars: for Cmax / Tmax: male, Beagle, dog, plasma, po. The method, then:
Male Beagle dogs (n=6) between the ages of 2-5 and weighing 6-12 kg were dosed with capsules followed by 50 mL of water. […] The dogs were either fasted or fed just prior to dosing with 14 g of dry dog food and 8 gm olive oil. The same set of dogs were used for all formulations, except where indicated. […]
Unless otherwise indicated, results are for the fasted state. Miglyol® softgels have a very low fasted exposure and thus a high food effect. The fasted exposure is higher than that for crystalline suspension, while the fed exposure using this high oil meal is the same. Thus Miglyol softgels provide a lower food effect than crystalline drug. At the same dose of 90 mgA, formulations such as A, O, and C that include surfactants and cosolvent have much higher fasted exposures and only a ca. 3× food effect. The fed exposures are also higher than for Miglyol® 812 softgels and crystalline drug. Poorer fasted exposure was obtained for Formulation WW, which contains a high level of ethyl lactate as a cosolvent.

Series [6] in a line: Dynamic light scattering particle size analysis of emulsions. The class given is physicochemical. The method, then: Preliminary particle size analysis data has been obtained on selected formulations using a dynamic light scattering particle size analyzer (ZetaPals, Brookhaven Instruments, Inc.) for measurement of sub-micron particle distribution. The formulation solutions were diluted 1:100 in HPLC-grade water (previously filtered through a 0.22 μm syringe filter). The resulting mixture was gently inverted five times to create the emulsion. Each emulsion sample was then analyzed at a temperature of 37° C. Triplicate measurements were made at each time point (0, 30 min).

The mark [7] stands for this setting: equilibrium, vehicle Miglyol 812.
Setting [8] is: equilibrium, vehicle Miglyol 812/propylene carbonate/Cremophor EL (60/20/20).
Where [9] appears, read: 90 mg, Fed, Miglyol 812/Triacetin/Cremophor RH40/Capmul MCM (20/30/20/30).
Setting [10] is: 90 mg, fasted, Miglyol 812/Triacetin/Cremophor RH40/Capmul MCM (20/30/20/30).
The mark [11] stands for this setting: preconcentrate Miglyol 812/Triacetin/Polysorbate 80/Capmul MCM 22/27/20/31 % v/v.
Where [12] appears, read: 60 mg, fasted, Miglyol 812/Triacetin/Polysorbate 80/Capmul MCM (22/27/20/31).

In the case of `CCC(CC)CC1(C(=O)Nc2ccccc2SC(=O)C(C)C)CCCCC1` [Compound B, Propanethioic acid, 2-methyl-, S-[2-[[[1-(2-ethylbutyl)cyclohexyl]carbonyl]amino]phenyl]ester], the “Ave Droplet Size (1:100 dilution)” value in series [1] (preconcentrate Miglyol 812/Triacetin/Polysorbate 80/Capmul MCM 20/30/20/30 % v/v) is less than 5 μ. Also, the Solubility in series [2] (Capmul MCM, oil or lipid, thermodynamic from solid, read-out: Microsolubility) is less than 100 mg/mL; in series [2] (Crodamol GTCC, oil or lipid, thermodynamic from solid, read-out: Microsolubility), less than 20 mg/mL; in series [2] (Crodamol GTCC/Capmul MCM/Polysorbate 80 (40/40/20), oil or lipid, thermodynamic from solid, read-out: Microsolubility) it was less than 100 mg/mL; in series [2] (Olive oil, oil or lipid, thermodynamic from solid, read-out: Microsolubility), less than 100 mg/mL; in series [2] (PEG 400, organic solvent or mixture, thermodynamic from solid, read-out: Microsolubility), less than 100 mg/mL; in series [2] (oil or lipid, thermodynamic from solid, read-out: Microsolubility), less than 100 mg/mL. Besides, the Solubility result in series [2] (preconcentrate Miglyol 812/Triacetin/Polysorbate 80/Capmul MCM 20/30/20/30 % v/v, amorphous solid) was “≧100 mgA/mL”.

One may read the Cmax as the peak of the concentration-time curve. Broadly, the Tmax is the time at which the peak concentration occurs. As for `CC[C@@H]1C[C@H](N(Cc2cc(C(F)(F)F)cc(C(F)(F)F)c2)C(C)=O)c2cc(C(F)(F)F)ccc2N1C(=O)OC(C)C` [Compound D, [2R,4S] 4-[acetyl-(3,5-bis-trifluoromethyl-benzyl)-amino]-2-ethyl-6-trifluoromethyl-3,4-dihydro-2H-quinoline-1-carboxylic acid isopropyl ester], the Solubility in series [3] (equilibrium, vehicle Capmul MCM) amounted to 58 mgA/ml; in series [3] (equilibrium, vehicle Cremophor EL), 18 mgA/ml; in series [3] (setting [7]), 61 mgA/ml; in series [3] (equilibrium, vehicle Miglyol 812/Cremophor EL 80/20) it was 51 mgA/ml; in series [3] (setting [8]), 208 mgA/ml; in series [3] (equilibrium, vehicle Olive oil), 13 mgA/ml. Also, the Solubility is recorded as 14 mgA/ml in series [3] (equilibrium, vehicle Olive oil/Cremophor EL 80/20); 239 mgA/ml in series [3] (equilibrium, vehicle Triacetin); 172 mgA/mL in series [3] (preconcentrate Miglyol 812/Triacetin/Cremophor RH40/Capmul MCM 20/30/20/30 % v/v). In series [4] (Example 19 oil after storage for 8 days or emulsion after 24 hr), the “chemical degradation or crystallization” value was “No chemical degradation based on HPLC analysis or crystallization based on microscopic examination was detected”. Further, the “AUG 0-tlast” value in series [5] (Fed, 90 mg, Miglyol 812/Triacetin/Cremophor RH40/Capmul MCM (20/30/20/30), Tlast 24 hr) was 4.84 ± 1.23 µg·h/mL; in series [5] (fasted, 90 mg, 100 mg/mL in Miglyol 812/Triacetin/Cremophor RH40/Capmul MCM (20/30/20/30), Tlast 24 hr) it was 3.45 ± 0.96 µg·h/mL. The values for the maximum concentration (Cmax) in series [5] (setting [9]) and in series [5] (setting [10]) were 1200 ± 410 ng/mL and 860 ± 310 ng/mL, respectively. Further, the time of peak concentration (Tmax) came out at 1.5 h in series [5] (setting [9]) and 1.7 h in series [5] (setting [10]).

Turning to `CC[C@@H]1C[C@H](N(Cc2cc(C(F)(F)F)cc(C(F)(F)F)c2)C(=O)OC)c2cc(C(F)(F)F)ccc2N1C(=O)OC(C)C` [Compound E, [2R,4S] 4-[(3,5-Bis-trifluoromethyl-benzyl)-methoxycarbonyl-amino]-2-ethyl-6-trifluoromethyl-3,4-dihydro-2H-quinoline-1-carboxylic acid isopropyl ester], the Solubility is on record as 167 mgA/ml in series [3] (setting [7]); 394 mgA/ml in series [3] (setting [8]); 39 mgA/ml in series [3] (equilibrium, vehicle Olive oil); 308 mgA/mL in series [3] (setting [11]). Also, the “Mean Diam.” value in series [6] (30 min., 100 mg/mL in Miglyol 812/Triacetin/Polysorbate 80/Capmul MCM (22/27/20/31)) came out at 175 nm; in series [6] (30 min., 200 mg/mL in Miglyol 812/Triacetin/Polysorbate 80/Capmul MCM (22/27/20/31)), 251 ± 45 nm; in series [6] (Initial, 100 mg/mL in Miglyol 812/Triacetin/Polysorbate 80/Capmul MCM (22/27/20/31)) it was 181 nm; in series [6] (Initial, 200 mg/mL in Miglyol 812/Triacetin/Polysorbate 80/Capmul MCM (22/27/20/31)), 239 ± 17 nm. The “chemical degradation or crystallization” value in series [4] (Example 15 oil or emulsion after storage for 24 hr, HPLC, microscopy) is given as “No chemical degradation based on HPLC analysis or crystallization based on microscopic examination was detected”. Moreover, the “average particle size of emulsion” value in series [4] (Example 15 oil solution (Miglyol 812/propylene carbonate/Cremophor EL, 275 mg/g) plus equal volume water) is “less than 10 microns”. In addition, in series [1] (setting [11]), the “Ave Droplet Size (1:100 dilution)” value is given as less than 2 μ. Besides, in series [5] (fasted, 60 mg, 100 mg/mL in Miglyol 812/Triacetin/Polysorbate 80/Capmul MCM (22/27/20/31), Tlast 48 hr), the “AUG 0-tlast” value was 2.90 ± 0.67 µg·h/mL. Also, the maximum concentration (Cmax) in series [5] (setting [12]) was found to be 200 ± 140 ng/mL. In addition, the Tmax in series [5] (setting [12]) came to 1.5 h.
